From paper PMC4182091, “A Common Minimal Motif for the Ligands of HLA-B*27 Class I Molecules” (PLoS ONE, 2014)
Where two headings read alike, the source gives them in different places. Ends that are not written are not given here.

What was measured:
Type in all cases: cell-based
HLA-B*2705 = target: T1, HLA-B*2705 (Homo sapiens, UniProt P01889, D138H/D201E/E176V/E204Q/G107R/H137Y/K202T/N104T/N87E/Q56L/Q94K/R106L/R155S/R180L/S101D/S121N/S48T/Y140D/Y33H/Y91C); assay: HLA/peptide complex stability assay, RMA-S cells transfected with HLA-B*2705; conditions: for fluorescence index, B*2705: peptide 200 µM
T1 construct: expressed in transfected cells; host or cells: RMA-S (TAP-deficient murine cell line)

HLA-B*2703 = target: T2, HLA-B*2703 (Homo sapiens, UniProt P01889, D138H/D201E/E176V/E204Q/G107R/H137Y/K202T/N104T/N87E/Q56L/Q94K/R106L/R155S/R180L/S101D/S121N/S48T/Y140D/Y33H/Y83H/Y91C); assay: HLA/peptide complex stability assay, RMA-S cells transfected with HLA-B*2703; conditions: for fluorescence index, B*2703: peptide 200 µM
T2 construct: expressed in transfected cells; host or cells: RMA-S (TAP-deficient murine cell line)

HLA-B*2704 = HLA-B*2704 (Homo sapiens, UniProt P01889, A235G/D138H/D201E/E204Q/G107R/H137Y/K202T/N104T/N87E/Q56L/Q94K/R106L/R155S/R180L/S121N/S48T/Y140D/Y33H/Y91C); assay: HLA/peptide complex stability assay, RMA-S cells transfected with HLA-B*2704; conditions: for fluorescence index, B*2704: peptide 200 µM
HLA-B*2706 = target: T3, HLA-B*2706 (Homo sapiens, UniProt P01889, A235G/D201E/E204Q/G107R/H137Y/K202T/N104T/N87E/Q56L/Q94K/R106L/R155S/R180L/S121N/S48T/Y33H/Y91C); assay: HLA/peptide complex stability assay, RMA-S cells transfected with HLA-B*2706; conditions: for fluorescence index, B*2706: peptide 200 µM
T3 construct: expressed in transfected cells; host or cells: RMA-S (TAP-deficient murine cell line)

HLA-B*2701 = target: T4, HLA-B*2701 (Homo sapiens, UniProt P01889, D138H/D201E/D98Y/E176V/E204Q/G107R/H137Y/K202T/L105A/N104T/N87E/Q56L/Q94K/R106L/R155S/R180L/S101N/S121N/S48T/Y140D/Y33H/Y91C); assay: HLA/peptide complex stability assay, RMA-S cells transfected with HLA-B*2701; conditions: for fluorescence index, B*2701: peptide 200 µM
T4 construct: expressed in transfected cells; host or cells: RMA-S (TAP-deficient murine cell line)

HLA-B*2702 = HLA-B*2702 (Homo sapiens, UniProt P01889, D138H/D201E/E176V/E204Q/G107R/H137Y/K202T/L105A/N104I/N87E/Q56L/Q94K/R106L/R155S/R180L/S101N/S121N/S48T/Y140D/Y33H/Y91C); assay: HLA/peptide complex stability assay, RMA-S cells transfected with HLA-B*2702; conditions: for fluorescence index, B*2702: peptide 200 µM
HLA-B*2709 = target: T5, HLA-B*2709 (Homo sapiens, UniProt P01889, D138H/D201E/E176V/E204Q/G107R/H137Y/K202T/N104T/N87E/Q56L/Q94K/R106L/R155S/R180L/S101D/S121N/S48T/Y140H/Y33H/Y91C); assay: HLA/peptide complex stability assay, RMA-S cells transfected with HLA-B*2709; conditions: for fluorescence index, B*2709: peptide 200 µM
T5 construct: expressed in transfected cells; host or cells: RMA-S (TAP-deficient murine cell line)

[1] = relative affinity (EC50 class), B*2705
[2] = relative affinity (EC50 class), B*2703
[3] = relative affinity (EC50 class), B*2704
[4] = relative affinity (EC50 class), B*2701
[5] = relative affinity (EC50 class), B*2702
[6] = […], mean ± S.D. of three to five independent experiments, SD
[7] = Table 1, transfected RMA-S cells, 2 h 26°C then 2 h 37°C, ME1 mAb, flow cytometry, ratio to control without peptide, mean ± S.D. of three to five independent experiments, SD
[8] = Table 4, monosubstituted Ala analogs, transfected RMA-S cells, flow cytometry, mean ± S.D. of three to five independent experiments, SD

LRNEESEKMAK [P 198-208]
relative MHC class I affinity according to the EC50 value, in words (high, medium, low) (HLA-B*2705): low affinity
EC50 (HLA-B*2705; EC50, B*2705, SD): 98 ± 35 µM
EC50 (HLA-B*2705; [1]): 61 to 200 µM
EC50 (HLA-B*2703; EC50, B*2703): > 200 µM
EC50 (HLA-B*2703; [2]): > 200 µM
EC50 (HLA-B*2704; read-out: EC50, B*2704): > 200 µM
EC50 (HLA-B*2704; [3]): > 200 µM
EC50 (HLA-B*2706; EC50, B*2706): > 200 µM
EC50 (HLA-B*2706; relative affinity (EC50 class), B*2706): > 200 µM
EC50 (HLA-B*2701; read-out: EC50, B*2701): > 200 µM
EC50 (HLA-B*2701; [4]): > 200 µM
EC50 (HLA-B*2702; read-out: EC50, B*2702): > 200 µM
EC50 (HLA-B*2702; [5]): > 200 µM
EC50 (HLA-B*2709; EC50, B*2709, SD): 86 ± 12 µM
EC50 (HLA-B*2709; relative affinity (EC50 class), B*2709): 61 to 200 µM

RRAAAAAAAI [RRA7I]
EC50 (HLA-B*2705; SD): 4 ± 3 µM
EC50 (HLA-B*2703; EC50, B*2703, SD): 7 ± 5 µM
EC50 (HLA-B*2704; SD): 7 ± 2 µM
EC50 (HLA-B*2706; SD): 2 ± 1 µM
EC50 (HLA-B*2701; SD): 7 ± 2 µM
EC50 (HLA-B*2702; EC50, B*2702, SD): 28 ± 16 µM
EC50 (HLA-B*2702; read-out: relative affinity (EC50 class), B*2702): 20 to 60 µM
EC50 (HLA-B*2709; EC50, B*2709, SD): 2 ± 1 µM

RRANNVLKNEA [A11-NP 184-194, monosubstituted Ala analog of HRSV NP 184-194, […]]
fluorescence index, B*2705 (HLA-B*2705; [6]): 2.1±0.1
fluorescence index, B*2703 (HLA-B*2703; [6]): 1.7±0.2
fluorescence index, B*2704 (HLA-B*2704; [6]): 2.0±0.2
fluorescence index, B*2706 (HLA-B*2706; [6]): 2.7±0.2
fluorescence index, B*2701 (HLA-B*2701; [6]): 1.1±0.1
fluorescence index, B*2702 (HLA-B*2702; [6]): 1.7±0.1
fluorescence index, B*2709 (HLA-B*2709; [6]): 1.8±0.1

RRANNVLKNEM [NP 184-194]
relative MHC class I affinity according to the EC50 value, in words (high, medium, low) (HLA-B*2705): high
EC50 (HLA-B*2705; EC50, B*2705, SD): 20 ± 8 µM
EC50 (HLA-B*2703; EC50, B*2703, SD): 60 ± 29 µM
EC50 (HLA-B*2703; [2]): 20 to 60 µM
EC50 (HLA-B*2704; EC50, B*2704, SD): 19 ± 10 µM
EC50 (HLA-B*2706; EC50, B*2706, SD): 2 ± 1 µM
EC50 (HLA-B*2701; EC50, B*2701, SD): 39 ± 9 µM
EC50 (HLA-B*2701; [4]): 20 to 60 µM
EC50 (HLA-B*2702; EC50, B*2702, SD): 43 ± 27 µM
EC50 (HLA-B*2702; [5]): 20 to 60 µM
EC50 (HLA-B*2709; EC50, B*2709, SD): 7 ± 1 µM

RRYPDAVYL [MV F 438-466, reference compound]
EC50 (HLA-B*2705; Table 2, peptide concentration at 50% of maximum fluorescence, range 0.01–200 µM, transfected RMA-S cells, flow cytometry, mean ± S.D. of three to five independent experiments, - = no statistical difference in fluorescence index to negative control, SD, read-out: EC50, B*2705): 3 ± 2 µM
EC50 (HLA-B*2703; Table 2, peptide concentration at 50% of maximum fluorescence, range 0.01–200 µM, transfected RMA-S cells, flow cytometry, mean ± S.D. of three to five independent experiments, - = no statistical difference in fluorescence index to negative control, SD, read-out: EC50, B*2703): 4 ± 3 µM
EC50 (HLA-B*2704; Table 2, peptide concentration at 50% of maximum fluorescence, range 0.01–200 µM, transfected RMA-S cells, flow cytometry, mean ± S.D. of three to five independent experiments, - = no statistical difference in fluorescence index to negative control, SD, read-out: EC50, B*2704): 18 ± 4 µM
EC50 (HLA-B*2706; Table 2, peptide concentration at 50% of maximum fluorescence, range 0.01–200 µM, transfected RMA-S cells, flow cytometry, mean ± S.D. of three to five independent experiments, - = no statistical difference in fluorescence index to negative control, SD, read-out: EC50, B*2706): 2 ± 1 µM
EC50 (HLA-B*2701; Table 2, peptide concentration at 50% of maximum fluorescence, range 0.01–200 µM, transfected RMA-S cells, flow cytometry, mean ± S.D. of three to five independent experiments, - = no statistical difference in fluorescence index to negative control, SD, read-out: EC50, B*2701): 5 ± 2 µM
EC50 (HLA-B*2702; Table 2, peptide concentration at 50% of maximum fluorescence, range 0.01–200 µM, transfected RMA-S cells, flow cytometry, mean ± S.D. of three to five independent experiments, - = no statistical difference in fluorescence index to negative control, SD, read-out: EC50, B*2702): 11 ± 4 µM
EC50 (HLA-B*2709; Table 2, peptide concentration at 50% of maximum fluorescence, range 0.01–200 µM, transfected RMA-S cells, flow cytometry, mean ± S.D. of three to five independent experiments, - = no statistical difference in fluorescence index to negative control, SD, read-out: EC50, B*2709): 4 ± 1 µM

SRSALLAQM [M 76-84]
relative MHC class I affinity according to the EC50 value, in words (high, medium, low) (HLA-B*2705): high
EC50 (HLA-B*2705; EC50, B*2705, SD): 5 ± 5 µM
EC50 (HLA-B*2703; EC50, B*2703, SD): 6 ± 3 µM
EC50 (HLA-B*2704; EC50, B*2704, SD): 15 ± 6 µM
EC50 (HLA-B*2706; EC50, B*2706, SD): 1 ± 1 µM
EC50 (HLA-B*2701; EC50, B*2701, SD): 15 ± 11 µM
EC50 (HLA-B*2702; EC50, B*2702): > 200 µM
EC50 (HLA-B*2702; [5]): > 200 µM
EC50 (HLA-B*2709; EC50, B*2709, SD): 6 ± 2 µM

VAFTSHEHF [CMV pp65, reference compound]
fluorescence index, B*2705 (HLA-B*2705; [7]): 1.0±0.1
fluorescence index, B*2705 (HLA-B*2705; [8]): 1.0±0.1
fluorescence index, B*2703 (HLA-B*2703; [7]): 1.0±0.1
fluorescence index, B*2703 (HLA-B*2703; [8]): 1.0±0.1
fluorescence index, B*2704 (HLA-B*2704; [7]): 1.0±0.1
fluorescence index, B*2704 (HLA-B*2704; [8]): 1.0±0.1
fluorescence index, B*2706 (HLA-B*2706; [7]): 1.0±0.1
fluorescence index, B*2706 (HLA-B*2706; [8]): 1.0±0.1
fluorescence index, B*2701 (HLA-B*2701; [7]): 1.0±0.1
fluorescence index, B*2701 (HLA-B*2701; [8]): 1.0±0.1
fluorescence index, B*2702 (HLA-B*2702; [7]): 1.0±0.1
fluorescence index, B*2702 (HLA-B*2702; [8]): 1.0±0.1
fluorescence index, B*2709 (HLA-B*2709; [7]): 1.1±0.1
fluorescence index, B*2709 (HLA-B*2709; [8]): 1.1±0.1

VRNKDLNTL [M 169-177]
relative MHC class I affinity according to the EC50 value, in words (high, medium, low) (HLA-B*2705): low affinity
EC50 (HLA-B*2705; read-out: EC50, B*2705, SD): 82 ± 20 µM
EC50 (HLA-B*2705; [1]): 61 to 200 µM
EC50 (HLA-B*2703; EC50, B*2703): > 200 µM
EC50 (HLA-B*2703; [2]): > 200 µM
EC50 (HLA-B*2704; EC50, B*2704, SD): 56 ± 16 µM
EC50 (HLA-B*2704; [3]): 20 to 60 µM
EC50 (HLA-B*2706; EC50, B*2706, SD): 3 ± 1 µM
EC50 (HLA-B*2701; EC50, B*2701): > 200 µM
EC50 (HLA-B*2701; [4]): > 200 µM
EC50 (HLA-B*2702; EC50, B*2702, SD): 94 ± 25 µM
EC50 (HLA-B*2702; [5]): 61 to 200 µM
EC50 (HLA-B*2709; EC50, B*2709, SD): 19 ± 7 µM
